# Assay results: patent publication US20230286919A1, “ISOQUINOLINE DERIVATIVES FOR USE IN THERAPY” (Vestlandets Innovasjonsselskap AS, priority 2020, published 2023)
# Key:
# Type in all cases: cell-based, human
# [1] = test system: phosphorylated STAT3 (Tyr705); assay: Western blot, IL-6-induced phosphorylation of STAT3 (Tyr705) in LNCaP cells; details: 20 μM, 24 hrs, 10 ng/ml IL-6 last 15 min
# Procedure: To obtain the results shown in FIG. 9, LNCaP cells were treated with DMSO, 20 μM of compound 323-1 or 323-2 or 5 μM cryptotanshinone for 24 hrs before treatment with or without 10 ng/ml IL-6 for the last 15 min.
# [2] = test system: STAT3 target genes (Cyclin D1, BCL-XL, MCL1, Survivin, PARP); assay: Western blot of STAT3 target gene proteins
# Procedure: As reported, aberrant STAT3 regulates the expression of downstream target genes involved in anti-apoptosis (Bcl-2, Mcl-1, survivin, and Bcl-xL), cell cycle (cyclin D1 and c-Myc), angiogenesis (VEGF and HIF1α), invasion and metastasis (MMP-1, MMP-2, MMP-9) and the inhibition of host immune surveillance. To further identify the characterization of the properties of 323-1 and 323-2, DU145, EPT3-M1-STAT3 and LNCaP cells were treated with 323-1 and 323-2 followed by western blotting.
# To obtain the results shown in FIG. 13, EPT3M1-STAT3 or LNCaP cells were treated with DMSO, 20 μM of compound 323-1, or 20 μM of compound 323-2 for 48 hrs, respectively. Lysates were analysed and loaded to western blotting.
# [3] = test system: DNA-binding domain of STAT1, STAT3, STAT5A, STAT5B; assay: STAT family DNA binding assay on nuclear extracts of DU145 cells; details: 5-20 μM, 24 hrs
# Procedure: The nuclear extraction was performed according to the STAT Family Transcription Factor Assay Kit (Abcam, ab207228). First, cells were washed with ice-cold PBS and Phosphatase Inhibitors Cocktail (125 mM NaF, […] p-glycerophosphatase, 250 mM PNPP, 25 mM NaVO3) in ice-cold PBVS was added and cells scraped off the dish. Then cells were collected at 300×g for 5 minutes at 4° C. The pellet was resuspended in hypotonic buffer (20 mM Hepes pH7.5, 5 mM NaF, 10 μM Na2MoO4, 0.1 mM EDTA) and 10% NP-40 was added to a final concentration 0.5% and mixed well. The mixture was centrifugated at 4° C. for 30 seconds in a microcentrifuge and supernatant was discarded. […] Stop solution was added when the wells turned medium to dark blue followed by measurement of absorbance at OD 450 nm. […]
# [4] = test system: LPS-induced IL-10 and IL-12p70 secretion in dendritic cells; assay: ELISA of secreted IL-10 and IL-12p70 in LPS-stimulated dendritic cells; details: 24 hrs
# Procedure: Low platelet peripheral blood mononuclear cells (PBMCs) were isolated from peripheral blood of healthy donors by Ficoll-Paque density centrifugation. Monocytes were derived from the above PBMCs by immunomagnetic selection with CD14+ microbeads (Pan Monocyte Isolation Kit from Miltenyi Biotec) and seeded at s 0.5×10^6 monocytes/ml in CellGro medium supplemented with GM-CSF (100 ng/ml) and IL-4 (20 ng/ml) to obtain immature dendritic cells (iDCs). Cytokines were replenished after 72 hrs and 24 hrs after incubation, iDCs were stimulated with 30 ng/ml LPS to obtain mature dendritic cells (moDCs). Test compounds were added into the wells 1 hr prior to the LPS treatment and co-incubated with LPS for another 23 hrs. Supernatant was collected for the detection of secreted IL-10 and IL-12p70 using a standard ELISA kit and cells were collected and markers identified by flow cytometry.
# The effects of compounds 323-1 and 323-2 and various controls on the LPS-induced expression of cytokines IL-10, IL-12p70, co-stimulatory molecules and maturation markers (CD80, CD83, CD86, HLA-DR, CCR7) and programmed death-ligand 1 (PD-L1) and programmed death-ligand 2 (PD-L2) were determined.
# [5] = EPT3-M1-STAT3 and LNCaP cells, 20 μM, 48 hrs
structure (smiles),measurement,setting,value
"C[C@@H]1CCC(c2cc3c4c(cncc4c2)[C@@H](C)C3)=C1C=O [323-2, (15S,2R)-Delavatine A]",IL-6-induced phosphorylation of STAT3 on Tyr705,[1],inhibited
same,Protein level of STAT3 target gene MCL1,[2]; [5],repressed
same,Protein level of Survivin or PARP,[2]; [5],but not Survivin or PARP
same,Expression of Cyclin D1,[2]; LNCaP cells,down-regulated dose-dependently
same,"Effect on DNA binding of STAT1, STAT3, STAT5A, STAT5B",[3],neither 323-1 nor 323-2 affected
same,Secretion of IL-10 and IL-12p70,[4],significantly reduced
